Reference: patent publication US6656916B1, “Glucocorticoid enhancement of gene expression” (Research Development Foundation, priority 1995, dated 2003)
“Also recorded” adds a separate entry of the source. Where two headings read alike, the source gives them in different places.

Assays:
[1] = system: A549 cells; assay: β-galactosidase (CPRG microtiter) activity in A549 cells transfected with reporter plasmid-cationic lipid; type: cell-based, human; settings: for β-gal expression over untreated cells: 10^−6 M beclomethasone 4 hours; for βgal activity versus medium treated, transfected cells: then beclomethasone 4 hours prior to transfection
[2] = system: primary rat lung cells; assay: β-gal activity in primary rat lung cells transfected with pCMVβgal-DMRIE/DOPE; type: cell-based
[3] = system: A549 cells; assay: 3H-thymidine-labeled pCMVβgal plasmid-lipid uptake; type: cell-based, human; settings: several concentrations, 4 hours pretreatment, uptake at 2 hours
Description: A549 cells were pretreated with medium or beclomethasone at the dose specified for 4 hours, then transfected with ^3H-thymidine-labeled pCMVβgal. Two hours post-transfection, cells were washed, lightly trypsinized and pelleted by centrifugation. Pellets were then lysed, resuspended, and liquid scintillation cocktail added. ^3H-thymidine-labeled pCMVβgal uptake (CPM) per sample was determined. Results represent the average and standard deviation from 4 experiments and each experimental point was performed in duplicate. Fold-change=CPM beclomethasone-pretreated/CPM medium pretreated.
^3H-thymidine-labeled pCMVβgal plasmid was prepared by adding 1 mCi of ^3H-TdR (^3H-TdR, 74GBq/mmol, Amersham) to a 25 ml overnight culture of pCMVβgal-transformed DH5α strain of Escherichia coli. Labeled plasmid was isolated using Qiagen tip columns (100 μg size, Chatsworth, Calif.) per manufacturer's instructions. Saturable binding of the labeled DNA was determined as follows. Serial dilutions, from 1 μg-0.125 μg of ^3-H-TdR-labeled DNA was added to A549 cells and incubated for either 2, 6 or 24 hours. […] Pellets were lysed in 100 μl of lysis buffer (0.1 M TRIS and 0.5% Triton X-100), liquid scintillation cocktail added (BCS, Amersham) and ^3H-plasmid label quantitated by liquid scintillation. […] Uptake was determined as described above.

[4] = system: A549 cells; assay: β-gal mRNA levels by RNA-specific PCR (RS-PCR); type: cell-based, human
Description: A549 cells were treated with 10^-6 M beclomethasone or medium for 4 hours. Cells were transfected with 1 μg/ml pCMVβgal plus 4 μg/ml DMRIE/DOPE. At times specified (hours) after transfection, total RNA was harvested, converted to cDNA and specific βgal messages amplified by RS-PCR as described below. RS-PCR samples were resolved on a 1% TAE agarose gel and transferred to nylon filter. Filter was hybridized to a ^32P-labeled βgal probe. Filter was analyzed by betascanner and bands of the appropriate size counted. Fold-change=βgal CPM in beclomethasone treated cells/βgal. CPM in medium-treated cells. […] Briefly, cells were pre-treated with beclomethasone at 10^-6 M and transfected as described above. After the incubation was complete, cells were lysed using acidified guanidinium isothiocyante (Fluka Chemical), containing 0.75 M sodium citrate and 1% sarkosyl. RNA was harvested using the RNAeasy system (Qiagen, Chatsworth, Calif.). Total RNA quantity was determined by A260 and, 0.5 μg of the RNA was run on a gel to determine RNA integrity. Using 0.3 μg of total RNA, cDNAs were prepared using MMLV reverse transcriptase (GIBCO, Life Technologies), substituting primer […] […] One μl of cDNA was spotted to duplicate nitrocellulose filters and counted by LSC. […] Blots were evaluated on a Betagen betascanner and CPM for bands of the correct size were determined.

[5] = system: A549 cells; assay: X-gal staining, count of stained transfected A549 cells; type: cell-based, human; settings: BEC 10^−6 M 4 hours, DNA-DMRIE/DOPE, 48 hours, stained cells in 1×1 cm^2 area
Description: All transfections were performed in OPTIMEM (GIBCO-Life Technologies). One μg of pCMVβ gal was combined with 4 μg of DMRIE/DOPE or 3 μg of DOSPA/DOPE in 1 ml of OPTIMEM and incubated for 15 minutes at room temperature. Cell monolayers were washed twice in serum-free medium then overlaid with 1 ml of transfection mixture and incubated for 2.5 hours at 37° C. in a humidified, 5% CO2. DNA-liposome overlay was replaced with DMEM plus 10% FBS and cells were incubated for 48 hours. Cell lysates were harvested and assayed for total protein according to the manufacturer's instructions (BCA assay, Pierce Chemical, Rockfield, Ill.) and β -galactosidase activity was determined using a Chlorophenored-β-D-galactopyranoside colorimetric microtiter assay as described (CPRG) assay (Boerhinger-Mannheim, Germany). […]
For stained cells, duplicate cell cultures of A549 cells were treated for 4 hours with beclomethasone dipropionate or medium only, then transfected with pCMVβgal using DMRIE/DOPE. At 48 hours, one set of cultures was lysed and βgal activity determined while the other set was fixed with neutral buffered formalin and stained with β-gal (duplicate wells for each treatment). Stained cells were counted in a 1×1 cm^2 area.

[6] = various doses, 4 hours prior to transfection with pCMVβ gal or pSVβ using DMRIE/DOPE

In the case of cyclosporine A, the “Reversal/enhancement of reporter gene expression by another immunosuppressant” value ([1]; cells pre-treated with cyclosporine A, cell type not stated) is reported as “this effect was not seen; also recorded: the effect was not seen”.

Interleukin-1β [IL-1β] was tested, and the “β-gal activity relative to medium treated cells” value ([1]; 100 U/ml IL-1β or 0.5 μg/ml lipopolysacchride for 4 hours before transfection with pCMVβgal-DMRIE/DOPE) was “decreased β-gal activity significantly; also recorded: suppressed the degree of β-gal expression”.

With `CC(=O)[C@H]1CC[C@H]2[C@@H]3CCC4=CC(=O)CC[C@]4(C)[C@H]3CC[C@]12C` [progesterone] the “Enhancement of β-gal / reporter gene expression by other steroids” value [1, 6] was “Enhancement of β-gal was only seen in the beclomethasone treated cells; also recorded: did not enhance reporter gene expression”.

`CCC(=O)OCC(=O)[C@@]1(OC(=O)CC)[C@@H](C)C[C@H]2[C@@H]3CCC4=CC(=O)C=C[C@]4(C)[C@@]3(Cl)[C@@H](O)C[C@@]21C` [beclomethasone, beclomethasone dipropionate] was tested, and the “Effectiveness of 10^−6 M compared with 10^−7 M” value ([2]; 10^−6 M) was “less effective than was 10^−7 M”, the “βgal activity, beclomethasone pretreatment followed by lipopolysacchride stimulation” value ([2]; 4 hours beclomethasone + 4 hours lipopolysacchride) was “restored βgal activity to that of the medium pre-treated cells” and the “Concentration of optimum enhancement in βgal activity” value ([2]; 4 hours pretreatment) was 10^−7 M. The “Enhancement of β-gal activity” value ([2]; 4 hours pretreatment, pCMVβgal-DMRIE/DOPE, composite of several rat cell preparations) was 2 fold, the “Enhancement of β-gal activity” value ([1]; 5×10^−7 M to 10^−6 M, 4 hours prior to transfection, pCMVβgal-DMRIE/DOPE) was 2-4 fold and the “Minimum beclomethasone exposure required to see enhanced β-gal transfection” value ([1]; 10^−6 M) was 3 to 4 h. For the same compound, the “β-gal expression over untreated cells” value ([1]; then IL-1β 4 hours prior to transfection) was 2 fold, the “β-gal expression over untreated cells” value ([1]; then lipopolysacchride 4 hours prior to transfection) was 2 fold and the “Beclomethasone-mediated enhancement of β-gal activity in presence of CHX” value ([1]; 10^−6 M beclomethasone + CHX 10 μg/ml, 4 hours) was “even greater in the presence of CHX”. The “Enhancement of β-gal activity (FIG. 3)” value ([1]; 10^−6 M beclomethasone only, 4 hours) was 2.5 fold, the “Pre-treatment time at which enhanced β-gal activity was maximized” value ([1]; 10^−6 M, remained maximal for the 24 hours monitored) was at most 8 h and the “Enhancement of β-gal activity” value ([1]; 10^−7 M, 4 hours prior to transfection, pCMVβgal-DMRIE/DOPE) was “only slight enhancement”. For the same compound, the “FOLD-CHANGE, βGAL ACTIVITY” value ([1]; BEC 10^−6 M 4 hours, DNA-DMRIE/DOPE, 48 hours) was 3, the “βgal activity versus medium treated, transfected cells” value ([1]; IL-1β 4 hours first) was “augmented βgal activity above what was seen in medium treated, transfected cells” and the “Concentration producing maximal enhanced reporter gene activity” value ([1]; alternate lipid, promoter or reporter) was 5×10^−7 to 10^−6 M. The “βgal activity versus medium treated, transfected cells” value ([1]; lipopolysacchride 4 hours first) was “augmented βgal activity above what was seen in medium treated, transfected cells”, the “β-gal expression with alternate cationic lipid” value ([1]; pCMVβgal and DOSPA/DOPE (FIG. 5A)) was “also enhanced” and the “β-gal enhancement with SV40 promoter vector” value ([1]; pSVβ-DMRIE/DOPE (FIG. 5B)) was “enhancement was observed”. For the same compound, the “Uptake of radiolabeled plasmid” value [3] was “does not appear to enhance uptake”, the “Steady-state β-gal mRNA levels versus medium-treated cells” value ([4]; T=3 and T=24 hours, 10^−6 M) was “definite increase in steady-state m RNA levels” and the “β-gal mRNA induction” value ([4]; T=2 hours after transfection, 10^−6 M 4 hours pretreatment) was 18 fold. For the same compound, the “FOLD-CHANGE, X-GAL STAINING” value [5] was 1.5 ± 0.7.

With `C[C@]12CC[C@@H]3c4ccc(O)cc4CC[C@H]3[C@@H]1CC[C@@H]2O` [estrogen, estradiol] the “Enhancement of β-gal / reporter gene expression by other steroids” value [1] was “Enhancement of β-gal was only seen in the beclomethasone treated cells; also recorded: did not enhance reporter gene expression”.

`C[C@@H]1C[C@@H]([C@H](O)CC2CC(=O)NC(=O)C2)C(=O)[C@@H](C)C1` [CHX, cycloheximide] was tested, and the “β-gal activity in control cells with protein synthesis inhibitor” value ([1]; CHX 10 μg/ml, 30 minutes + 4 hours) was “moderately suppressed the β-gal activity”.

With `CC(C)CCC[C@@H](C)[C@H]1CC[C@H]2[C@@H]3CC=C4C[C@@H](O)CC[C@]4(C)[C@H]3CC[C@]12C` [cholesterol] the “Enhancement of β-gal / reporter gene expression by other steroids” value [1, 6] was “Enhancement of β-gal was only seen in the beclomethasone treated cells; also recorded: did not enhance reporter gene expression”.

For `CC1(C)O[C@@H]2C[C@H]3[C@@H]4C[C@H](F)C5=CC(=O)C=C[C@]5(C)[C@H]4[C@@H](O)C[C@]3(C)[C@]2(C(=O)CO)O1` [FLUN, flunisolide], the “Degree of β-gal enhancement compared with the other glucocorticoids” value ([1]; 10^−6 M, 4 hours prior to transfection) was “less of an enhancing effect” and the “Enhancement of β-gal activity by other topical glucocorticoids (FIG. 2B)” value ([1]; 10^−6 M, 4 hours prior to transfection, pCMVβgal-DMRIE/DOPE) was “enhanced β-gal activity”.
